In the NIST ThermoML archive (doi:10.1016/j.jct.2012.08.033):
Numbers after ± are expanded uncertainties.

Experiments:
[1] = Liquid, vibrating tube
[2] = xn = mol fraction of the nth substance listed; settings: Liquid, vibrating tube, x1 = 1

Row | Structure (SMILES) | mass density ([1]; 293.28 K, 100.7 kPa) [kg/m3] | mass density ([1]; 313.3 K, 78.5 kPa) [kg/m3] | mass density ([2]; 293.28 K, 100.7 kPa) [kg/m3] | mass density ([2]; 313.3 K, 78.5 kPa) [kg/m3]
1 | O [water] | 998.33 ± 2 | 992.09 ± 2 |  | 
2 | O [water] + C1CCOC1 |  |  | 998.33 ± 2 | 992.09 ± 2
